According to the NIST ThermoML archive (doi:10.1021/je301004f):

How the values were obtained:
[1] = for mass density / viscosity: 101.33 kPa, Liquid; for mass density: Vibrating tube method; for viscosity: Falling or rolling sphere viscometry
[2] = refractive index (Na D-line) (dimensionless); conditions: 101.33 kPa, Liquid, Standard Abbe refractometry

CCCCCCCC/C=C\CCCCCCCCn1cc[n+](C)c1.O=S(=O)([N-]S(=O)(=O)C(F)(F)F)C(F)(F)F
Conditions	mass density [kg/m3]	refractive index	viscosity [mPa·s]
[1], 273.15 K	1210.9	–	–
[1], 278.15 K	–	–	1005.3
[1], 283.15 K	1202.62	–	698.6
[1], 288.15 K	–	–	492.9
[1], 293.15 K	1194.49	–	355.7
[1], 298.15 K	–	–	263.5
[1], 303.15 K	1186.39	–	222.85
[1], 313.15 K	1178.38	–	133.94
[1], 323.15 K	1170.38	–	85.97
[1], 333.15 K	1162.47	–	58.09
[1], 343.15 K	1154.57	–	41.09
[2], 283.2 K	–	1.4576	–
[2], 293.2 K	–	1.4545	–
[2], 298.2 K	–	1.4528	–
[2], 303.2 K	–	1.4511	–
[2], 313.2 K	–	1.4479	–
[2], 323.2 K	–	1.4446	–
[2], 333.2 K	–	1.441	–
[2], 343.2 K	–	1.4379	–

Conditions	Normal melting temperature [°C]
[1], Crystal, DTA	-20.8
